Results taken from the supplement of paper PMC10307832.

Tests used:
Assay in all cases: relative viability (nuclei count vs DMSO), 5 days (fraction); higher = more cells survive
CUDC-101 + Trametinib = compound: C#Cc1cccc(Nc2ncnc3cc(OC)c(OCCCCCCC(=O)NO)cc23)c1 [CUDC-101] + CC(=O)Nc1cccc(-n2c(=O)n(C3CC3)c(=O)c3c(Nc4ccc(I)cc4F)n(C)c(=O)c(C)c32)c1 [Trametinib] (partner 0.02 µM)
In short: (§1)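 Medians of duplicate plates are given as relative viability. That measure is the nuclei count in treated wells divided by the count in vehicle wells. Counts were taken on 4× images of lung cancer cell lines in 1536-well plates, 5 days after pin-tool dosing the day after seeding with one drug alone or a fixed anchor-drug dose plus five library-drug doses (not always all listed) in √10 steps.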

Vandetanib + Navitoclax = compound: COc1cc2/c(=N/c3ccc(Br)cc3F)nc[nH]c2cc1OCC1CCN(C)CC1 [Vandetanib] + CC1(C)CCC(c2ccc(Cl)cc2)=C(CN2CCN(c3ccc(C(=O)NS(=O)(=O)c4ccc(N[C@H](CCN5CCOCC5)CSc5ccccc5)c(S(=O)(=O)C(F)(F)F)c4)cc3)CC2)C1 [Navitoclax] (partner 0.5 µM)
In short: as §1

[1] = compound: C1=CC=C2C(=C1)N=C(S2)C(C#N)C3=NC(=NC=C3)NCCC4=CN=CC=C4 + O=C(c1cc(Cc2n[nH]c(=O)c3ccccc23)ccc1F)N1CCN(C(=O)C2CC2)CC1 [Olaparib] (partner 8 µM)
In short: as §1

Vandetanib + Decitabine = compound: COc1cc2/c(=N/c3ccc(Br)cc3F)nc[nH]c2cc1OCC1CCN(C)CC1 [Vandetanib] + Nc1ncn([C@H]2C[C@H](O)[C@@H](CO)O2)c(=O)n1 [Decitabine] (partner 2 µM)
In short: as §1

Row | Cell Line | relative viability (CUDC-101 + Trametinib; first compound 0.01 µM) | relative viability (CUDC-101 + Trametinib; first compound 0.03162 µM) | relative viability (CUDC-101 + Trametinib; first compound 0.1 µM) | relative viability (CUDC-101 + Trametinib; first compound 0.3162 µM) | relative viability (CUDC-101 + Trametinib; first compound 1 µM) | relative viability (Vandetanib + Navitoclax; first compound 0.02 µM) | relative viability (Vandetanib + Navitoclax; first compound 0.06325 µM) | relative viability (Vandetanib + Navitoclax; first compound 0.2 µM) | relative viability (Vandetanib + Navitoclax; first compound 0.6325 µM) | relative viability (Vandetanib + Navitoclax; first compound 2 µM) | relative viability ([1]; first compound 0.005 µM) | relative viability ([1]; first compound 0.01581 µM) | relative viability ([1]; first compound 0.05 µM) | relative viability ([1]; first compound 0.1581 µM) | relative viability ([1]; first compound 0.5 µM) | relative viability (Vandetanib + Decitabine; first compound 0.02 µM) | relative viability (Vandetanib + Decitabine; first compound 0.06325 µM) | relative viability (Vandetanib + Decitabine; first compound 0.2 µM) | relative viability (Vandetanib + Decitabine; first compound 0.6325 µM) | relative viability (Vandetanib + Decitabine; first compound 2 µM)
1 | LK-2 | 0.715 | 0.625 | 0.884 | 0.592 | 0.392 | 0.761 | 0.759 | 0.913 | 0.936 | 0.721 | 0.645 | 0.804 | 0.63 | 0.754 | 0.766 | 0.307 | 0.293 | 0.317 | 0.315 | 0.271
2 | NCI-H358 | 0.142 | 0.135 | 0.119 | 0.143 | 0.115 | – | – | – | – | – | 0.413 | 0.658 | 0.653 | 0.698 | 0.419 | 0.181 | 0.203 | 0.208 | 0.232 | 0.19
3 | NCI-H522 | 0.605 | 0.747 | 0.893 | 0.651 | 0.642 | – | – | – | – | – | 0.66 | 0.638 | 0.634 | 0.533 | 0.751 | 0.619 | 0.691 | 0.717 | 0.768 | 0.646
4 | NCI-H650 | 1.06 | 0.864 | 1.08 | 1.16 | 0.911 | – | – | – | – | – | 0.412 | 0.369 | 0.441 | 0.345 | 0.363 | 0.354 | 0.324 | 0.322 | 0.351 | 0.329
5 | NCI-H661 | 0.566 | 0.529 | 0.609 | 0.542 | 0.374 | – | – | – | – | – | 0.543 | 0.8 | 0.723 | 0.801 | 0.613 | 0.536 | 0.556 | 0.527 | 0.46 | 0.446
6 | NCI-H1299 | – | – | – | – | – | 1 | 1.01 | 1.05 | 1.08 | 1.03 | 0.966 | 1.05 | 1.01 | 1.05 | 0.894 | – | – | – | – | –
7 | NCI-H1648 | 0.461 | 0.595 | 0.437 | 0.351 | 0.277 | – | – | – | – | – | – | 1.02 | – | 0.977 | 1.09 | 0.55 | 0.52 | 0.479 | 0.49 | 0.418
8 | NCI-H1703 | – | – | – | – | – | 1.15 | – | 1.27 | 0.575 | 0.256 | 0.357 | 0.353 | – | 0.377 | 0.66 | – | – | – | – | –
9 | NCI-H2228 | 0.553 | 0.467 | 0.486 | 0.912 | 0.537 | 0.917 | 0.482 | – | 0.938 | 0.695 | 0.481 | 0.738 | 0.489 | 0.729 | 0.527 | – | – | – | – | –
10 | NCI-H2342 | 0.789 | 0.947 | 0.814 | 0.819 | 0.777 | – | – | – | – | – | 0.536 | 0.454 | 0.495 | 0.442 | 0.45 | 0.727 | 0.75 | 0.8 | 0.699 | 0.723
11 | SW 900 | 0.914 | 0.74 | 0.799 | 0.627 | 0.746 | – | – | – | – | – | 0.65 | 0.755 | 0.838 | 0.938 | 0.87 | 0.406 | 0.39 | – | 0.48 | 0.437
